Measured values published in PMC9457556, “Newly Designed Quinazolinone Derivatives as Novel Tyrosinase Inhibitor: Synthesis, Inhibitory Activity, and Mechanism” (Molecules, 2022).
Where two headings read alike, the source gives them in different places. One block for each molecule: values may come before it.

Columns and labels:
mushroom tyrosinase [1] = test: Mushroom tyrosinase enzyme assay with L-DOPA as substrate (475 nm); conditions: for inhibitory activity against tyrosinase: result in words; for IC50: L-DOPA oxidation, pH 6.8, 30 °C, mean of triplicate determinations ± standard deviation
Description: Firstly, the effect of the Q1compound against the tyrosinase activity was evaluated.
We measured enzyme assay with L-DOPA as the substrate. We determined enzyme activity at 475 nm in the spectrophotometric experiments. We dissolved the test compounds in DMSO at 1 mM, which was diluted to the required concentration (0, 15, 30, 60, 120, 180, 240, 300 μM). We measured the reaction solution (3 mL), consisting 0.75 mL sodium phosphate buffer (0.1 M, pH 6.8), 1.8 mL H2O, 0.3 mL L-DOPA (2 mM), 0.1 mL test compound, and 0.05 mL enzyme (0.2 mg /L), at 30 °C. We replaced test samples as control. We determined each concentration in three experiments. We used the concentration that inhibited half of the enzyme activity (IC50) to measure the inhibitory effect of inhibitor. We investigated kinetic parameters with increasing concentrations of L-DOPA and test samples by the Lineweaver–Burk double-reciprocal plot and Dixon plot methods. We calculated the % inhibition of tyrosinase as follows: Inhibition (%) = [1 − B/A]/100, where the A and B are the absorbances of the blank control and samples, respectively.

[2] = Fluorescence quenching of tyrosine; format: binding; conditions: Q1 from 0 to 36 μM; intensity 447.6 to 216.5
Description: We also investigated the fluorescence quenching Q1 experiment regarding tyrosine activity, and recorded the fluorescence intensity of tyrosine in the range of […]. […] Thus, the compound was also a good binding agent for tyrosine in a dose-dependent manner.
(§1) We used fluorescence analysis (Varian Cary Eclipse fluorescence spectrophotometer) to perform fluorescence experiment, and set the excitation wavelength at 290 nm. We mixed inhibitor solution, substrates of tyrosine/L-DOPA or enzyme solution, and sodium phosphate buffer (pH 6.8) at the volumetric ratio of 1:1:8 (v/v/v).

mushroom tyrosinase [3] = test: Kinetic studies of tyrosinase inhibition (enzyme concentration plots, Lineweaver-Burk plots); format: biochemical
Description: To ascertain the inhibition type and mechanism of Q1, we studied the relationship between the enzyme concentration and the remaining enzyme activity with various concentrations of Q1 (0, 15, 60, and 120 μM).
Different concentrations of the compound Q1 (0, 15, 60, and 120 μM) were applied to inhibit tyrosinase and obtain the kinetic behavior of tyrosinase catalysis. Lineweaver–Burk reciprocal plots were used to investigate the inhibition modes of Q1 on mushroom tyrosinase. […] Thus, Q1 could bind not only to the free enzymes but also to the enzyme–substrate complexes. […] Additionally, the value of KIS was measured to be 423.63 μM from the concentrations of the compound versus the vertical intercept.
We purchased mushroom tyrosinase (with specific activity 6680 U/mg), and L-3,4-dihydroxyphenyl-alanine (L-DOPA) from Sigma (St. Louis, MO, USA). We measured enzyme assay with L-DOPA as the substrate. We determined enzyme activity at 475 nm in the spectrophotometric experiments. We dissolved the test compounds in DMSO at 1 mM, which was diluted to the required concentration (0, 15, 30, 60, 120, 180, 240, 300 μM). We measured the reaction solution (3 mL), consisting 0.75 mL sodium phosphate buffer (0.1 M, pH 6.8), 1.8 mL H2O, 0.3 mL L-DOPA (2 mM), 0.1 mL test compound, and 0.05 mL enzyme (0.2 mg /L), at 30 °C. We replaced test samples as control. We determined each concentration in three experiments. We used the concentration that inhibited half of the enzyme activity (IC50) to measure the inhibitory effect of inhibitor. We investigated kinetic parameters with increasing concentrations of L-DOPA and test samples by the Lineweaver–Burk double-reciprocal plot and Dixon plot methods. We calculated the % inhibition of tyrosinase as follows: Inhibition (%) = [1 − B/A][…], where the A and B are the absorbances of the blank control and samples, respectively.

[4] = Fluorescence quenching of L-DOPA; format: binding; conditions: Q1 from 0 to 36 μM; intensity 1619 to 879.9
Description: Finally, the fluorescence emission spectra of L-DOPA were tested in the solutions of Q1 with various concentrations. […] Similarly, the fluorescence emission intensity of Q1 disappeared when it was added to the solution. The results inferred that Q1 was also a good L-DOPA binding agent.
as §1

mushroom tyrosinase [5] = test: Fluorescence quenching of mushroom tyrosinase; format: binding; conditions: Q1 at 36 μM; excitation 290 nm, emission peak 333 nm
Description: The intrinsic interaction mechanisms of Q1 on the tyrosinase were investigated by the fluorescence quenching analysis. The fluorescence emission spectrum was recorded as ranging from 310 to 550 nm at a 290 nm excitation wavelength. […] However, the fluorescence intensity of tyrosinase reduced gradually as the concentration of the citral derivative increased.
as §1

mushroom tyrosinase [6] = biological target: mushroom tyrosinase; parameters: method as in PMID 20638280; conditions: standard inhibitor; cited from earlier work

Structure (SMILES): Cc1ccc(-c2nc3ccccc3c(=O)[nH]2)cc1 [Compound Q6, 2-(p-tolyl)quinazolin-4(3H)-one]
- inhibitory activity against tyrosinase (mushroom tyrosinase [1]): did not exhibit inhibitory activity

Structure (SMILES): OC[C@H]1O[C@@H](Oc2ccc(O)cc2)[C@H](O)[C@@H](O)[C@@H]1O [arbutin]
- IC50 (mushroom tyrosinase [6]): 180 µM

Structure (SMILES): COc1ccc(-c2nc3ccccc3c(=O)[nH]2)cc1 [Compound Q7, 2-(4-methoxyphenyl)quinazolin-4(3H)-one]
- inhibitory activity against tyrosinase (mushroom tyrosinase [1]): did not exhibit inhibitory activity

Second part, led by results:

- inhibition type (mushroom tyrosinase [3]; Lineweaver-Burk plots, Q1 at 0, 15, 60, 120 μM): mixed inhibition type
- reversibility of inhibition (mushroom tyrosinase [3]; enzyme activity versus enzyme concentration, Q1 at 0, 15, 60, 120 μM): reversible
- KIS (mushroom tyrosinase [3]; enzyme-substrate complex, from vertical intercept versus compound concentration): 423.63 µM
- Ki (mushroom tyrosinase [3]; free enzyme, from plots of slope versus compound concentration, read-out: inhibitor constant (KI)): 117 µM
- relative fluorescence intensity of tyrosinase (mushroom tyrosinase [5]): 39.45%
- IC50 (mushroom tyrosinase [1]): 103 ± 2 µM
Structure (SMILES): CC(C)=CCCC(C)=Cc1nc2ccccc2c(=O)[nH]1 [Compound Q1, 2-(2,6-dimethylhepta-1,5-dien-1-yl)quinazolin-4(3H)-one]
- decrease of fluorescence intensity of tyrosine [2]: 51.63%
- decrease of fluorescence intensity of L-DOPA [4]: 45.65%

- melting point: 189 to 191 °C
- IC50 (mushroom tyrosinase [1]): 105 ± 1 µM
Structure (SMILES): CC(C)=CCCC(C)=Cc1nc2cccc(F)c2c(=O)[nH]1 [Compound Q2, 2-(2,6-dimethylhepta-1,5-dien-1-yl)-5-fluoroquinazolin-4(3H)-one]

- melting point: 188 to 192 °C
- IC50 (mushroom tyrosinase [1]): 253 ± 2 µM
Structure (SMILES): CC(C)=CCCC(C)=Cc1nc2cc(C)ccc2c(=O)[nH]1 [Compound Q4, 2-(2,6-dimethylhepta-1,5-dien-1-yl)-7-methylquinazolin-4(3H)-one]

- melting point: 190 to 192 °C
- IC50 (mushroom tyrosinase [1]): 168 ± 2 µM
Structure (SMILES): CC(C)=CCCC(C)=Cc1nc2ccc(Cl)cc2c(=O)[nH]1 [Compound Q3, 6-chloro-2-(2,6-dimethylhepta-1,5-dien-1-yl)quinazolin-4(3H)-one]
